Assay results reported in article PMC10816640, “Discovery of Novel Diphenyl Acrylonitrile Derivatives That Promote Adult Rats’ Hippocampal Neurogenesis” (International Journal of Molecular Sciences, 2024).
Values joined by “and” are separate entries in the source; they are usually repeats but may differ in a detail not shown here. Equal values may be shown once. Marks after values point to notes of the source that are not given here.

Key:
[1] = Pharmacokinetic study, plasma; format: in vivo, SD rats; conditions: rat blood/plasma, 4 mg/kg i.p.
Procedure: (§1) The SD rats (approximately 200 g) were randomly assigned to eight groups, with each group comprising three rats. All experimental procedures were carried out in accordance with the ethical guidelines outlined by the Ethics Committee of the Beijing Institute of Technology. The administration medium consisted of a combination of 5% dimethyl sulfoxide (DMSO) and 95% soybean oil. The drug was administered intraperitoneally at a dose of 4 mg/kg. Prior to the experiment, the experimental animals were subjected to a 12 h fasting period with free access to water. Following drug administration, blood samples were collected from the rat’s orbital vein at predetermined time points. The collected blood was then placed in sodium heparin anticoagulation tubes. The rats were euthanized, and their brain tissues were carefully extracted and loaded into 5 mL EP tubes. The collection time points for plasma and brain tissue samples were as follows: 0 min, 15 min, 30 min, 1 h, 2 h, 4 h, 8 h, and 24 h. Within 2 h after collection, the blood samples were centrifuged at 6000 rpm for 10 min at a temperature of 4 °C. The resulting samples were then stored in a −20 °C refrigerator.
(§2) Tissue samples were first weighed and homogenized to ensure consistent testing conditions. The determination of original compound concentrations in plasma and tissue homogenates was performed using LC-MS/MS. Specifically, 50 μL of plasma or tissue samples were mixed with 50 μL of propranolol and 100 μL of acetonitrile for protein precipitation. The resulting mixture was then centrifuged at 12,000 rpm for 5 min, and the supernatant was diluted and analyzed through LC-MS/MS. The liquid chromatography was conducted on a Thermo Scientific Q Exactive HF-X instrument (Thermo Fisher Scientific, Waltham, MA, USA), employing an ACQUITY UPLC BEH C18 Column with dimensions of 130 Å, 1.7 µm, 2.1 mm × 100 mm. Additionally, a pre-column equipped with an ACQUITY UPLC BEH C18 VanGuard Pre-Column (130 Å, 1.7 µm, 2.1 mm × 5 mm) was utilized. The liquid phase method employed gradient elution with mobile phases consisting of acetonitrile and a 0.1% formic acid aqueous solution. Mass spectrometry was conducted in positive ion mode. The quantification of drug concentration in plasma samples was performed using the internal standard method, and the obtained pharmacokinetic parameters were calculated using Phoenix WinNonlin 7.0 software.

[2] = Pharmacokinetic study, brain tissue distribution; format: in vivo, SD rats; conditions: 4 mg/kg i.p.
Procedure: as §1
as §2, with “Additionally, a pre-column equipped with an ACQUITY UPLC BEH C18 VanGuard Pre-Column (130 Å, 1.7 µm, 2.1 mm × 5 mm) was utilized. The liquid phase method employed gradient elution with mobile phases consisting of acetonitrile and a 0.1% formic acid aqueous solution. Mass spectrometry was conducted in positive ion mode.” left out

[3] = tested on: newborn cells in the subgranular zone; assay: BrdU+ newborn cells, rats sacrificed 28 days after BrdU; format: in vivo, rat; conditions: nine-week-old rats (n = 2), i.p. 4.0 mg/kg/day for 28 days, BrdU pulse, Figure 7A
Procedure: The study employed a rat model, wherein nine-week-old rats were administered intraperitoneally with the compound at a dose of 4.0 mg/kg/day for 28 days and then treated with a pulse of BrdU. Instead of sacrificing the rats 24 h after the BrdU injections, the rats were sacrificed after another 28 days. The brains were then isolated and cryosectioned. Eight randomly selected slices were subjected to immunohistochemical staining. This staining enabled the co-localization of the BrdU-incorporated cells with the NeuN marker, enabling the definition of the compounds that could promote the differentiation of newborn neural progenitor cells into mature functional neurons. The compounds were dissolved in reagent-grade soybean oil containing 10% ethanol to reach a drug concentration of 2.8 mg/mL. The rats in the experimental group received intraperitoneal injections of the compounds at a dose of 4.0 mg/kg/d for 28 consecutive days. As a control, the vehicle group was administered injections of reagent-grade soybean oil containing 10% ethanol. BrdU (Sigma-Aldrich, St. louis, MA, USA) solution, prepared in physiological saline at a concentration of 10 mg/mL, was administered to all rats on day 29. Each rat received two injections of BrdU at a dosage of 50 mg/kg, with a 2 h interval between injections. The rats were euthanized 24 h (or 28 days) after the final BrdU injection. Two or four rats per group were anesthetized using pentobarbital sodium (70 mg/kg) and subsequently perfused with physiological saline. The brain tissue was carefully dissected and fixed in 4% paraformaldehyde at 4 °C for one week. Next, the brain tissue underwent dehydration using a phosphate-buffered saline (PBS) solution containing 20% to 30% sucrose. Finally, the brain tissue was cryosectioned into slices with a thickness of 30 μm, and eight slices were randomly selected for further analysis. The assessment of new cell proliferation was conducted using BrdU staining. To eliminate endogenous peroxides, sections were exposed to 1% H2O2 for 30 min at RT. Cellular denaturation was achieved by treating the sections with 2 M HCl at 37 °C for 1 h, followed by rinsing in 0.1 M borate buffer (pH 8.5). Tissue sections were subjected to blocking in a solution consisting of 5% goat serum and 0.5% Triton X-100 in PBS at RT for 1–2 h. The specimens were then incubated overnight at 4 °C with a mouse primary antibody specific to BrdU (diluted at 1:500; Millipore, Billerica, MA, USA). Subsequently, the DAB kit was employed for 2 h of incubation at RT. The differentiation process of NPCs was visualized through the utilization of the NeuN/BrdU double staining technique. Tissue sections were subjected to an incubation period in a blocking buffer at RT for 1 to 2 h. The specimens were exposed to a rabbit anti-NeuN antibody (diluted at 1:500, Abcam, Cambridge, MA, UK) and a primary antibody, BrdU (diluted at 1:500), overnight at 4 °C. Afterwards, the sections were treated with anti-mouse 488 and anti-rabbit TRITC secondary antibodies for 2 h at RT. The data were presented as mean ± SEM (standard error of the mean) and visualized using GRAPHPAD PRISM 6 (Graphpad Software, La Jolla, CA, USA). Statistical analysis was conducted utilizing one-way analysis of variance (ANOVA) followed by a post hoc test. Subsequent to the statistical treatment, the observed discrepancies were determined to be statistically significant (p < 0.05).

AUC0–inf [1] [ng·h/mL]	CL [1]	MRT [1] [h]	T1/2 [1] [h]	Tmax [1] [h]	Vz [1]	AUC0–24h ([1]; n = 3) [ng·h/mL]	Cmax ([1]; n = 3) [ng/mL]	Cmax ([2]; rat brain tissue, n = 3) [ng/g]	AUC0–24h ([2]; rat brain tissue, n = 3, 4 mg/kg)	Ratio = Cmax of Brain/Cmax of Blood ([2]; rat)	SMILES	proliferative activity over the longer 28 day period (number of BrdU+ cells) [3]
385 ± 82.3	10,770 ± 2616 mL/h/kg	2.46 ± 0.14	2.23	1.5	32,829 ± 4581 mL/kg	383 ± 84.4	132 ± 9	168 ± 47	608 ng·h/g and 608 ± 220 ng·h/g	1.28 ^a	CC(C)C(=O)Nc1ccc(/C=C(\C#N)c2ccc3c(c2)OCO3)cc1 [32b, (Z)-N-(4-(2-(benzo[d][1, 3]dioxol-5-yl)-2-cyanovinyl)phenyl)isobutyramide]	–
–	–	–	–	–	–	–	–	–	–	–	CC(C)C(=O)Nc1ccc(/C(C#N)=C/c2ccc3c(c2)OCO3)cc1 [29b, (Z)-N-(4-(2-(benzo[d][1, 3]dioxol-5-yl)-1-cyanovinyl)phenyl)isobutyramide]	could promote the proliferation of progenitors
